# Measurements reported in ChEMBL document CHEMBL1137385, “Macrocyclic inhibitors of beta-secretase: functional activity in an animal model” (J Med Chem, 2006).
# Columns and labels:
# [1] = target: T1, Beta-secretase 1 (Homo sapiens, UniProt P56817); experiment: Inhibition of BACE1 at pH 4.5
# [2] = Apparent permeability in porcine LLC-PK1 cells; format: ADME, cell-based, Sus scrofa; conditions: pig
# [3] = target: T1, Beta-secretase 1; experiment: Inhibition of BACE1 in HEK293T cells; format: cell-based, HEK-293T
# [4] = system: Mus musculus; experiment: Ratio of drug level in brain against plasma in C57/BL6 APP-YAC mouse model at 100 mg/kg, iv; format: ADME, organism-based, C57Bl/6; parameters: dose 100 mg/kg, route intravenous
# [5] = system: Mus musculus; experiment: Drug level in brain of C57/BL6 APP-YAC mouse model at 100 mg/kg, iv; format: ADME, organism-based, C57Bl/6; parameters: dose 100 mg/kg, route intravenous; conditions: in vivo, read-out: Drug uptake
# T1 sequence (P56817 whole entry): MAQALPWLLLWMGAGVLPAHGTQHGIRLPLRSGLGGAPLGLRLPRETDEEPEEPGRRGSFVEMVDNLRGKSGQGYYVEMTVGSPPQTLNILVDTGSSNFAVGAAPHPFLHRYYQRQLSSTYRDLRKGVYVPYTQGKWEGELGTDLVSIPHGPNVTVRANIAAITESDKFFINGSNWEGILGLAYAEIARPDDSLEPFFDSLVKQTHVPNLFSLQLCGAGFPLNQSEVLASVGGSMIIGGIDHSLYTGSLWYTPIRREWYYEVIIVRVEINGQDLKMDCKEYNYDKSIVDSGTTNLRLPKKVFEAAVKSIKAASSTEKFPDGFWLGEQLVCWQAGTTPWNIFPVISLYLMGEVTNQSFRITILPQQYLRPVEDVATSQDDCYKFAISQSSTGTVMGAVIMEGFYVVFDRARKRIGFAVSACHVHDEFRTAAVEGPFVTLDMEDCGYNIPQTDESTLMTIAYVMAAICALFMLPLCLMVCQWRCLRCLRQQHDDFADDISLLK
IC50 [1] [nM],BPR [4] [%],concentration [5] [nM],Compound,Papp [2] [×10⁻⁶ cm/s],IC50 [3] [nM]
1100,–,–,CC[C@H](NCC1Cc2cccc(c2)CCCCCc2cc(cc(N(C)S(C)(=O)=O)c2)C(=O)N1)C(=O)NCC(C)C (stereo partly drawn),–,–
> 100000,–,–,CNC(=O)c1cc(C(=O)NC(CO)Cc2cccc(OC)c2)cc(N(C)S(C)(=O)=O)c1 (stereo not drawn),–,–
4,20,1100,CCCC[C@H](NC[C@@H]1Cc2cccc(c2)CCCCc2cc(cc(N(CCC)S(C)(=O)=O)c2)C(=O)N1)C(=O)NCC(C)C,13,76

Compound,IC50 [1] [nM],BPR [4] [%],concentration [5] [nM],Papp [2] [×10⁻⁶ cm/s],IC50 [3] [nM]
CC[C@H](NCC1Cc2cccc(c2)CCCCc2cc(cc(N(C)S(C)(=O)=O)c2)C(=O)N1)C(=O)NCC(C)C (stereo partly drawn),90,–,–,19,1140
CC[C@H](NCC1Cc2cccc(c2)OCCNC(=O)c2cc(cc(N(C)S(C)(=O)=O)c2)C(=O)N1)C(=O)NCC(C)C (stereo partly drawn),32,–,–,0.5,5400
